Consider 1 compound from US5230998A, “Method for the prescreening of drugs targeted to the V3 hypervariable loop of the HIV-1 envelope glycoprotein gp 120” (priority 1991, dated 1993).

Entries after “also recorded” stand apart in the source; their conditions may differ.

In one experiment the test system is CD4 receptor. The following applies: literature; listed as ATA; cited from earlier work.
The target in a further experiment is peptide (492-518) (Human immunodeficiency virus type 1 BH10, UniProt P03375). The experiment can be described thus: Attachment of ATA determined by anti-ATA antibodies (double antibody RIA). Format: binding, HIV-1 BH 10. The conditions noted are these: FIG. 1C. How it is done: (§1) Antibodies to ATA were detected by double antibody RIA using wells coated with an ATA-ovalbumin conjugate. This conjugate was prepared in the same way as described for the ATA-BSA conjugate. Dilution endpoints of anti-ATA antibodies, determined as described by Ritchie, D. G., Nickerson, J. M., and Fuller, G. M. (1983), "Two Simple Programs for the Analysis of Data from Enzyme-linked Immunosorbent Assays (ELISA) on a Programmable Desk-top Calculator," Methods in Enzymology, 92, 577-588) of the two antisera were: 1:2,700 and 1:150,000, respectively. The second antiserum was used for subsequent RIA tests.
(§2) ATA was also added to a control peptide, (518-542), and to wells coated with gelatin only. After incubation for 4 hours at 20° C., excess ATA was removed, the wells were washed with TS and attached ATA was determined by double-antibody RIA using serial dilutions of the anti-ATA antiserum. Similar tests were carried out with serum from the same rabbit before immunization with the ATA-BSA conjugate; the corresponding results (100-450 cpm) were subtracted from cpm corresponding to RIA results obtained with the anti-ATA antiserum. For additional assays aimed at determining the binding of ATA to synthetic peptides from gp120 and gp41 of HIV-1 BH 10 and to V3 hypervariable loop peptides from 20 additional HIV-1 isolates, anti-ATA antiserum was used at a final dilution of 1:800.

In another experiment the target is T1, gp120 (Human immunodeficiency virus type 1 BH10, UniProt P03375).
T1 construct: cut from Env gp160
The experiment is described as above. Format: binding, HIV-1 BH 10. The conditions noted are these: FIG. 2; listed as ATA. How it is done: as §1, §2

The target in experiment [1] is T2, V3 hypervariable loop peptide (303-338) (Human immunodeficiency virus type 1 BH10, UniProt P03375).
T2 construct: cut from Env gp160
The experiment is described as above. Format: binding, HIV-1 BH 10. The following applies: FIG. 1C, FIG. 2. As to the method:
as §1, §2

Experiment [2] has as its target recombinant gp120 and recombinant CD4 (UniProt P01730+P03375). Nature of the experiment: Inhibition of the reaction between recombinant gp120 and recombinant CD4. The conditions noted are these: complete inhibition only at high concentrations; read-out: concentration for complete inhibition of the gp120-CD4 reaction. Format: binding. How it is done: However, ATA is an inefficient inhibitor of the reaction between recombinant gp120 and recombinant CD4, and complete inhibition of this reaction can be observed only at high concentrations of ATA (≈1 mg/ml).

The test system of a further experiment is HIV-1. Nature of the experiment: HIV-1 infection marker: viral DNA in ATA-treated cultures. Format: cell-based. The text has this: The combined effects of AZT and ATA, and other compounds shown to be effective in Table 1, hereinbelow, against HIV-1 are also contemplated by the present invention, since synergistic drug combinations would offer means for alleviating toxicity due to AZT, observed in clinical settings. Contemplated combinations include, for example, AZT+ATA, AZT+chlorin e6; AZT+deuteroporphyrin IX, 2,4(4,2) hydroxyethyvinyl; and AZT+meso-tetra(4-carboxyphenyl)porphine.

Regarding `O=C(O)C1=CC(=C(c2ccc(O)c(C(=O)O)c2)c2ccc(O)c(C(=O)O)c2)C=CC1=O` [substance #122, aurintricarboxylic acid], in the experiment on CD4 receptor, the “inhibition of the interaction with CD4 receptor” value was “inhibited the interaction of the CD4 receptor for HIV-1; also recorded: inhibiting the interaction between HIV-1 virions and cellular CD4 receptors”. Besides, the “binding of ATA to peptide (anti-ATA antibodies)” value on peptide (492-518) is listed as “bound to the peptide (492-518)”; in experiment [1], “most efficient binder of ATA”. Moreover, on gp120, the “binding of ATA to gp120 (anti-ATA antibodies)” value was “reacted with gp120; also recorded: remained bound to gp120 after removal of the excess of the compound”. Further, in experiment [2], the IC100 was about 1000 µg/mL. Further, the “viral DNA in treated cultures” value in the experiment with HIV-1 is “almost undetectable”.
